Read-outs that look alike come from different tables or passages of the source.
Target: PDGFRβ (Rattus norvegicus (Rat), UniProt Q05030)
Test: PDGFRβ Cellular Assay (PDGFRb P-Y751 HTRF in A10 cells stimulated with PDGF-BB)
Type: cell-based
In short: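 Phospho-Y751 PDGFRβ was measured by HTRF in lysates of A10 rat cells. Cells received compound for 3 hours before PDGF-BB stimulation (100 ng/mL working stock).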

PDGFRβ, sequence (Q05030 32-1097): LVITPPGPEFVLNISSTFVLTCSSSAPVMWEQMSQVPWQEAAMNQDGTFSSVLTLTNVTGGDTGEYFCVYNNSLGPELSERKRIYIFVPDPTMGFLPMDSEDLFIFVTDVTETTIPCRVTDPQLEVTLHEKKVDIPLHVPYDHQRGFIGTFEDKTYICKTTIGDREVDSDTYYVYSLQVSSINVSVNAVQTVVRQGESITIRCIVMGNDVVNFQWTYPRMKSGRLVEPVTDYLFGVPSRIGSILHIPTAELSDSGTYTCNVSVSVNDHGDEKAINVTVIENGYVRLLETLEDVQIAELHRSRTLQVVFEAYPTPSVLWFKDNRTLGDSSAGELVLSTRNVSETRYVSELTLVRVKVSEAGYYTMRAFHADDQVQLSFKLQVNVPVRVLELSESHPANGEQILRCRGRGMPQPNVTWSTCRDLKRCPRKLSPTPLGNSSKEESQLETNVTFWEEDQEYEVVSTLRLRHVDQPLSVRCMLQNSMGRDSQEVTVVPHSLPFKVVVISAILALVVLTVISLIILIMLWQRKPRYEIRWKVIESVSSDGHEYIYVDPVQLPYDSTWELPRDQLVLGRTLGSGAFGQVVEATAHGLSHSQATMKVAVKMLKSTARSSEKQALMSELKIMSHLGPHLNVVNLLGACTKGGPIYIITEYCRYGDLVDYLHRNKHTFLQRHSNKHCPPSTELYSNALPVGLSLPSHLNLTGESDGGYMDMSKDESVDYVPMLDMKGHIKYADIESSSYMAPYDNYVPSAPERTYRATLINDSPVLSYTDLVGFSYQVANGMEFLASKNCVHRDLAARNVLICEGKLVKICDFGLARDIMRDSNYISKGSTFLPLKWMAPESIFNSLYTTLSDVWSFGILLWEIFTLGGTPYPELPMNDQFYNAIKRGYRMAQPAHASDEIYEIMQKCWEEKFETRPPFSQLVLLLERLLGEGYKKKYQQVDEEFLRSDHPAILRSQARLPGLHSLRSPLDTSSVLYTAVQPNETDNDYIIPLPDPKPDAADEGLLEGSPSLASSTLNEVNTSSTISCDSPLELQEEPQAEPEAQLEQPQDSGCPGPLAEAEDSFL

Structure (SMILES)	IC50 (read-out: PDGFR Cellular IC50) [nM]	IC50 (PDGFR Cellular IC50) [nM]
Cc1ncc(NC(=O)CN2CC(C)(C)C2)cc1NC(=O)c1cnn2cc(-c3ccc(C4(O)COC4)cc3)sc12 [Example 272, N-(5-(2-(3,3-dimethylazetidin-1-yl)acetamido)-2-methylpyridin-3-yl)-2-(4-(3-hydroxyoxetan-3-yl)phenyl)pyrazolo[5,1-b]thiazole-7-carboxamide]	5.6	
COCCn1cc(-c2cn3ncc(C(=O)Nc4cc(NC(=O)CN5CC(C)(C)C5)cnc4C)c3s2)cn1 [Example 261, N-(5-(2-(3,3-dimethylazetidin-1-yl)acetamido)-2-methylpyridin-3-yl)-2-(1-(2-methoxyethyl)-1H-pyrazol-4-yl)pyrazolo[5,1-b]thiazole-7-carboxamide]	4.2	
Cc1ncc(NC(=O)CN(C)C2CCOCC2)cc1NC(=O)c1cnn2cc(-c3cnn(CC(N)=O)c3)sc12 [Example 300, 2-(1-(2-amino-2-oxoethyl)-1H-pyrazol-4-yl)-N-(2-methyl-5-(2-(methyl(tetrahydro-2H-pyran-4-yl)amino)acetamido)pyridin-3-yl)pyrazolo[5,1-b]thiazole-7-carboxamide]	1010	
Cc1ncc(NC(=O)C[C@@H]2CCCCN2C(C)C)cc1NC(=O)c1cnn2cc(-c3cnn(C)c3)sc12 [Example 305, (S)—N-(5-(2-(1-isopropylpiperidin-2-yl)acetamido)-2-methylpyridin-3-yl)-2-(1-methyl-1H-pyrazol-4-yl)pyrazolo[5,1-b]thiazole-7-carboxamide]	308	
Cc1ncc(NC(=O)OC[C@@H]2CCCN2C)cc1NC(=O)c1cnn2cc(-c3cc[nH]c3)sc12 [Example 258, (S)-(1-methylpyrrolidin-2-yl)methyl (5-(2-(1H-pyrrol-3-yl)pyrazolo[5,1-b]thiazole-7-carboxamido)-6-methylpyridin-3-yl)carbamate]	48.7	
Cc1ncc(NC(=O)CN2CC(C)(C)C2)cc1NC(=O)c1cnn2cc(-c3cnn(CCO)c3)sc12 [Example 290, N-(5-(2-(3,3-dimethylazetidin-1-yl)acetamido)-2-methylpyridin-3-yl)-2-(1-(2-hydroxyethyl)-1H-pyrazol-4-yl)pyrazolo[5,1-b]thiazole-7-carboxamide]	19.5	
Cc1ncc(NC(=O)CN2CC(C)(C)C2)cc1NC(=O)c1cnn2cc(-c3cnn(CC#N)c3)sc12 [Example 266, 2-(1-(cyanomethyl)-1H-pyrazol-4-yl)-N-(5-(2-(3,3-dimethylazetidin-1-yl)acetamido)-2-methylpyridin-3-yl)pyrazolo[5,1-b]thiazole-7-carboxamide]	36.2	
Cc1ncc(NC(=O)CN2CC(C)(C)C2)cc1NC(=O)c1cnn2cc(-c3cnn(C4CS(=O)(=O)C4)c3)sc12 [Example 262, N-(5-(2-(3,3-dimethylazetidin-1-yl)acetamido)-2-methylpyridin-3-yl)-2-(1-(1,1-dioxidothietan-3-yl)-1H-pyrazol-4-yl)pyrazolo[5,1-b]thiazole-7-carboxamide]	36.9	
Cc1ncc(NC(=O)[C@@H]2CCCN3CCCC[C@H]23)cc1NC(=O)c1cnn2cc(-c3cnn(C)c3)sc12 [Example 308, 2-(1-methyl-1H-pyrazol-4-yl)-N-(2-methyl-5-((1R,9aR)-octahydro-2H-quinolizine-1-carboxamido)pyridin-3-yl)pyrazolo[5,1-b]thiazole-7-carboxamide]	311	
Cc1ncc(NC(=O)CN2CC(C)(C)C2)cc1NC(=O)c1cnn2cc(-c3c[nH]c4ccccc34)sc12 [Example 287, N-(5-(2-(3,3-dimethylazetidin-1-yl)acetamido)-2-methylpyridin-3-yl)-2-(1H-indol-3-yl)pyrazolo[5,1-b]thiazole-7-carboxamide]	1.8	
Cc1ncc(NC(=O)CN(C)C2CCOCC2)cc1NC(=O)c1cnn2cc(-c3cnn(CS(C)(=O)=O)c3)sc12 [Example 298, N-(2-methyl-5-(2-(methyl(tetrahydro-2H-pyran-4-yl)amino)acetamido)pyridin-3-yl)-2-(1-((methylsulfonyl)methyl)-1H-pyrazol-4-yl)pyrazolo[5,1-b]thiazole-7-carboxamide]		236
Cc1ncc(NC(=O)C(C)N2CCCCCC2)cc1NC(=O)c1cnn2cc(-c3cnn(C)c3)sc12 (stereo not shown) [Example 306, N-(5-(2-(azepan-1-yl)propanamido)-2-methylpyridin-3-yl)-2-(1-methyl-1H-pyrazol-4-yl)pyrazolo[5,1-b]thiazole-7-carboxamide]	4.8	
Cc1ncc(NC(=O)CN(C)C2CCOCC2)cc1NC(=O)c1cnn2cc(-c3cnn(C(C)C#N)c3)sc12 (stereo not shown) [Example 297, 2-(1-(1-cyanoethyl)-1H-pyrazol-4-yl)-N-(2-methyl-5-(2-(methyl(tetrahydro-2H-pyran-4-yl)amino)acetamido)pyridin-3-yl)pyrazolo[5,1-b]thiazole-7-carboxamide]	98	
Cc1ncc(NC(=O)CN(C)C2CCOCC2)cc1NC(=O)c1cnn2cc(-c3cnn(C4CCC4)c3)sc12 [Example 296, 2-(1-cyclobutyl-1H-pyrazol-4-yl)-N-(2-methyl-5-(2-(methyl(tetrahydro-2H-pyran-4-yl)amino)acetamido)pyridin-3-yl)pyrazolo[5,1-b]thiazole-7-carboxamide]	7.6	
COc1ncccc1-c1cn2ncc(C(=O)Nc3cc(NC(=O)C4CCCCN4C(C)C)cnc3C)c2s1 (stereo not shown) [Example 315, N-(5-(1-isopropylpiperidine-2-carboxamido)-2-methylpyridin-3-yl)-2-(2-methoxypyridin-3-yl)pyrazolo[5,1-b]thiazole-7-carboxamide]	5.4	
Cc1ncc(NC(=O)CN2CC(C)(C)C2)cc1NC(=O)c1cnn2cc(-c3cnn(C4CCS(=O)(=O)CC4)c3)sc12 [Example 280, N-(5-(2-(3,3-dimethylazetidin-1-yl)acetamido)-2-methylpyridin-3-yl)-2-(1-(1,1-dioxidotetrahydro-2H-thiopyran-4-yl)-1H-pyrazol-4-yl)pyrazolo[5,1-b]thiazole-7-carboxamide]	85.9	
Cc1ncc(NC(=O)CN2CCCC3(COC3)C2)cc1NC(=O)c1cnn2cc(-c3cnn(C)c3)sc12 [Example 24, N-(5-(2-(2-oxa-6-azaspiro[3.5]nonan-6-yl)acetamido)-2-methylpyridin-3-yl)-2-(1-methyl-1H-pyrazol-4-yl)pyrazolo[5,1-b]thiazole-7-carboxamide]	31.8	
Cc1ncc(NC(=O)[C@@H]2C[C@@H](C)CN2C)cc1NC(=O)c1cnn2cc(-c3cnn(C)c3)sc12 [Example 304, N-(5-((2S,4R)-1,4-dimethylpyrrolidine-2-carboxamido)-2-methylpyridin-3-yl)-2-(1-methyl-1H-pyrazol-4-yl)pyrazolo[5,1-b]thiazole-7-carboxamide]	9.3	
Cc1ncc(NC(=O)CN2CC(C)(C)C2)cc1NC(=O)c1cnn2cc(-c3cnc4[nH]ncc4c3)sc12 [Example 288, N-(5-(2-(3,3-dimethylazetidin-1-yl)acetamido)-2-methylpyridin-3-yl)-2-(1H-pyrazolo[3,4-b]pyridin-5-yl)pyrazolo[5,1-b]thiazole-7-carboxamide]	13.5	
Cc1ncc(NC(=O)C2CCCCN2C(C)C)cc1NC(=O)c1cnn2cc(-c3cccnc3O)sc12 (stereo not shown) [Example 314, 2-(2-hydroxypyridin-3-yl)-N-(5-(1-isopropylpiperidine-2-carboxamido)-2-methylpyridin-3-yl)pyrazolo[5,1-b]thiazole-7-carboxamide]	548	
COc1ncccc1-c1cn2ncc(C(=O)Nc3cc(NC(=O)CN4CCCC5(CC5)C4)cnc3C)c2s1 [Example 321, N-(5-(2-(5-azaspiro[2.5]octan-5-yl)acetamido)-2-methylpyridin-3-yl)-2-(2-methoxypyridin-3-yl)pyrazolo[5,1-b]thiazole-7-carboxamide]	1.2	
Cc1ncc(NC(=O)CN2CC(C)(C)C2)cc1NC(=O)c1cnn2cc(-c3cnn(-c4cccnc4)c3)sc12 [Example 289, N-(5-(2-(3,3-dimethylazetidin-1-yl)acetamido)-2-methylpyridin-3-yl)-2-(1-(pyridin-3-yl)-1H-pyrazol-4-yl)pyrazolo[5,1-b]thiazole-7-carboxamide]	4.4	
Cc1ncc(NC(=O)CN2CC(C)(C)C2)cc1NC(=O)c1cnn2cc(-c3ccn(S(C)(=O)=O)c3)sc12 [Example 275, N-(5-(2-(3,3-dimethylazetidin-1-yl)acetamido)-2-methylpyridin-3-yl)-2-(1-(methylsulfonyl)-1H-pyrrol-3-yl)pyrazolo[5,1-b]thiazole-7-carboxamide]		7.6
Cc1ncc(NC(=O)CN2CC(C)(C)C2)cc1NC(=O)c1cnn2cc(-c3ccsc3)sc12 [Example 282, N-(5-(2-(3,3-dimethylazetidin-1-yl)acetamido)-2-methylpyridin-3-yl)-2-(thiophen-3-yl)pyrazolo[5,1-b]thiazole-7-carboxamide]	0.9	
Cc1ncc(NC(=O)CN2CCCC2)cc1NC(=O)c1cnn2cc(-c3cccnc3O)sc12 [Example 312, 2-(2-hydroxypyridin-3-yl)-N-(2-methyl-5-(2-(pyrrolidin-1-yl)acetamido)pyridin-3-yl)pyrazolo[5,1-b]thiazole-7-carboxamide]	948	
Cc1ncc(NC(=O)CN2CC(C)(C)C2)cc1NC(=O)c1cnn2cc(-c3ccc(CO)s3)sc12 [Example 278, N-(5-(2-(3,3-dimethylazetidin-1-yl)acetamido)-2-methylpyridin-3-yl)-2-(5-(hydroxymethyl)thiophen-2-yl)pyrazolo[5,1-b]thiazole-7-carboxamide]	1.5	
Cc1ncc(NC(=O)CC(C)N2CCCCC2)cc1NC(=O)c1cnn2cc(-c3cnn(C)c3)sc12 (stereo not shown) [Example 307, 2-(1-methyl-1H-pyrazol-4-yl)-N-(2-methyl-5-(3-(piperidin-1-yl)butanamido)pyridin-3-yl)pyrazolo[5,1-b]thiazole-7-carboxamide]	73.2	
COc1ncccc1-c1cn2ncc(C(=O)Nc3cc(NC(=O)CN4CCC5(CCOC5)C4)cnc3C)c2s1 (stereo not shown) [Example 320, N-(5-(2-(2-oxa-7-azaspiro[4.4]nonan-7-yl)acetamido)-2-methylpyridin-3-yl)-2-(2-methoxypyridin-3-yl)pyrazolo[5,1-b]thiazole-7-carboxamide]	1.6	

— US20240109917A1 (ACTELION PHARMACEUTICALS LTD, priority 2020, published 2024)
